From patent US20030129168A1, “Expression of proteins for treating asthma via ligand mediated activation of their encoding genes” (ARIAD Gene Therapeutics, Inc., priority 1996, published 2003)

Tests used:
[1] = system: myristoylated chimeric CD3/FKBP12 (MZF3E) receptor; experiment: FK1012 activation of myristoylated chimeric CD3/FKBP12 (MZF3E) receptor, NFAT SEAP reporter in Jurkat T cells; assay type: cell-based, human; conditions: addition of 1 ng/ml FK506
Source text: In an illustrative case, this was accomplished by creating an intracellular receptor comprised of a small fragment of Src sufficient for posttranslational myristoylation (M), the cytoplasmic tail of zeta (Z; a component of the […] was also used), three consecutive FKBP12s (F3) and a flu epitope tag (E). […] The promoter of the SEAP reporter gene was constructed to be transcriptionally activated by nuclear factor of activated T cells (NFAT), which is assembled in the nucleus following TCR-signaling.
Specifically, 5 μg of the eukaryotic expression vector, pBJ5, containing a myristoylated chimeric receptor was co-transfected with 4 μg NFAT-SX. MZE, MZF1E, MZF2E and MZF3E contain 0, 1, 2, or 3 copies of FKBP12, respectively, downstream of a myristoylated CD3 cytoplasmic domain (see FIG. 2 of PCT/US94/01617). As a control, 5 μg of pBJ5 was used in a parallel transfection. After 24 hours, aliquots of each transfection containing approximately 10^5 cells were incubated with log dilutions of the drug, FK1012B, as indicated. As a positive control and to control for transfection efficiency, ionomycin (1 μm) and PMA (25 ng/ml) were added to aliquots from each transfection. After an additional 12 hour incubation, the supernatants were assayed for alkaline phosphatase activity and these activities were expressed relative to that of the positive control samples. […] Compare FIGS. 7 and 8 of PCT/US94/01617.

[2] = system: NFAT; experiment: SEAP reporter activation by cross-linking chimeric receptor TAC/TAC/Z (TTZ) in TAg Jurkat cells; assay type: cell-based, human; conditions: addition of 1 ng/ml FK506; TTZ-transfected TAg Jurkat cells on bound anti-TAC mAb
Source text: The plasmid pSXNeo/IL2 (IL2-SX) (FIG. 1 of PCT/US94/01617), which contains the placental secreted alkaline phosphatase gene under the control of human IL-2 promoter (−325 to +47; MCB(86) 6, 3042), and related plasmid variants (i.e. NFAT-SX, NFB-SX, OAP/Octl-SX, and AP-1-SX) in which the reporter gene is under the transcriptional control of the minimal IL-2 promoter (−325 to −294 and −72 to +47) combined with synthetic oligomers containing various promoter elements (i.e. NFAT, NKB, OAP/Oct-1, and AP1, respectively), were made by three piece ligations of 1) pPL/SEAP (Berger, et al., Gene (1988) 66,1) cut with Sspl and HindIII; 2) pSV2/Neo (Southern and Berg, J. Mol. Appl. Genet. (1982) 1, 332) cut with NdeI, blunted with Kilenow, then cut with PvuI; and 3) various promoter-containing plasmids (i.e. NFAT-CD8, B-CD8, cxl2lacZ-Oct-1, AP1-LUCIF3H, or cx151L2) (described below) cut with PvuI and HindIII. NFAT-CD8 contains 3 copies of the NFAT-binding site (−286 to −257; Genes and Dev. (1990) 4, 1823) and cx121acZ-Oct contains 4 copies of the OAP/Oct-1/(ARRE-1) binding site (MCB, (1988) 8, 1715) from the human IL-2 enhancer; B-CD8 contains 3 copies of the NFB binding site from the murine light chain (EMBO (1990) 9,4425) and AP1-LUCIF3H contains 5 copies of the AP-1 site (5′-[…]-3′) from the metallothionen promoter. […]

[3] = system: chimeric FKBP12/CD3 (1FK3) receptor; experiment: FK1012A activation of chimeric FKBP12/CD3 (1FK3) receptor, NFAT-SX SEAP reporter; assay type: cell-based; conditions: addition of 2 ng/ml FK506
Method: 5 μg of the eukaryotic expression vector, pBJ5, (based on pCDL-SR with a polylinker inserted between the 16S splice site and the poly A site), containing the chimeric receptor (1FK3), was co-transfected with 4 μg of the NFAT-inducible secreted alkaline phosphatase reporter plasmid, NFAT-SX. As a control, 5 μg of pBJ5 was used, instead of 1FK3/pBJ5, in a parallel transfection. After 24 hours, aliquots of each transfection containing approximately 10^5 cells were incubated with log dilutions of the drug FK1012A, as indicated. As a positive control and to control for transfection efficiency, ionomycin (1 μM) and PMA (25 ng/ml) were added to aliquots from each transfection. After an additional 14 hour incubation, the supernatants were assayed for alkaline phosphatase activity and these activities were expressed relative to that of the positive control samples. […] Each data point obtained was the average of two samples and the experiment was performed several times with similar results.

C=CC[C@@H]1/C=C(\C)C[C@H](C)C[C@H](OC)[C@H]2O[C@@](O)(C(=O)C(=O)N3CCCC[C@H]3C(=O)O[C@H](/C(C)=C/[C@@H]3CC[C@@H](O)[C@H](OC)C3)[C@H](C)[C@@H](O)CC1=O)[C@H](C)C[C@@H]2OC [FK506]
alkaline phosphatase activity (FK1012B stimulations) [1]: dropped all stimulations to near background levels | alkaline phosphatase activity due to NFAT [2]: dropped all activity due to NFAT to background levels | alkaline phosphatase activity (FK1012A stimulations) [3]: dropped all stimulations to background levels
